Test results published in patent US20100113415A1, “EPHA4 RTK INHIBITORS FOR TREATMENT OF NEUROLOGICAL AND NEURODEGENERATIVE DISORDERS AND CANCER” (priority 2008, published 2010).

Columns and labels:
C2C12 cells = assay: Proliferation assay (cell confluence), C2C12 cells; assay type: cell-based, mouse; details: at 5 μM
Protocol: (§1) C2Cl2 were plated at 15,000 cells per well and then differentiated into myotubes with DMEM supplemented with 2% horse serum for 3 days in 24 well ImageLock™ plate (Essen Instruments, MI, USA). Primary Rat cortical astrocytes were plated at 3.105 cells/ml onto 24 well ImageLock™ plate.
(§2) Cells were placed into the IncuCyte™ at 37° C. and 95% CO2/5% O2, for two to three days. During this time, the cells within each well were repeatedly imaged at fixed time intervals (every three hours). The IncuCyte™ system automatically monitored the proliferation using the percentage of confluence. Percent of confluence can be graphed over time to evaluate the characteristics of proliferation in the presence of pharmacological agents.
(§3) Compounds were tested at 5 μM in quadruplicate. The percentage of reduction of cell confluence was calculated from the AUCs in comparison with the AUCs of the control wells (1% DMSO).

[1] = tested on: C2C12 mouse myoblast cell line; assay: Scratch wound assay, C2C12 cells; assay type: cell-based; details: from AUC of % wound confluence; for IC50: Mus musculus, C2C12, inflexion point, read-out: Scratch Assay C2C12 Cells IP
Protocol: Cell Cultures: C2C12 mouse myoblast cell line (ATCC, VA, USA) was maintained in culture in DMEM media supplemented with 10% fetal bovine serum, 1 mM sodium pyruvate, 1.5 g/L sodium bicarbonate, and 100 IU of penicillin, […] of streptomycin. The cells were then differentiated into myotubes with DMEM supplemented with 2% horse serum for 3 days in 24 well ImageLock™ plate (Essen Instruments, MI, USA).
Scratch wound assays are commonly used to assess the effects of drugs and drug candidates on the cellular proliferation and/or migration associated with wound closing. The IncuCyte™ system (Essen Instruments, MI, USA), an automated imaging platform, provides ongoing, real-time images and quantitative data generated throughout the wound-closing process. Cells were maintained in 24 well ImageLock™ (Essen Instruments, MI, USA) at 37° C. and 95% CO2/5% O2, until a confluent monolayer was achieved. A single scratch wound was then created in each well using the Essen Woundmaker™ (Essen Instruments, MI, USA). It induced a mechanical scratch of the cell monolayer using plastic pipette tips (10-20 μl pipette tips, Eppendorff). Dead cells and other debris produced by the scratch were immediately washed with regular growth media. Cells were then treated with pharmacological agents and were placed into the IncuCyte™ at 37° C. and 95% CO2/5% O2, for two to three days. During this time, the wound area within each well was repeatedly imaged at fixed time intervals (every three hours). The IncuCyte™ scratch wound software generates a “wound mask” for each well. An initial wound mask is created for the first image (at time 0) that clearly delineates the border of the wound. A revised mask is generated for each subsequent image to track wound closure. Wound closure can be automatically monitored using the wound confluence (% confluence). Wound confluence can be graphed over time to evaluate the characteristics of wound closing in the presence of pharmacological agents.
The calculation of the area under the curve (AUC) of the % confluence function of the time gave a quantitative measurement of compounds efficacy on the scratch wound closing. Compounds were titrated in quadruplicate at 5 points concentration starting at 20 μM with a two-fold increment. The percentage of inhibition was calculated from the AUCs at each dose in comparison with the AUCs of the control wells (1% DMSO). Concentration-response curves were represented and the concentrations at the inflexion point (IP) were calculated. The maximum effect was given by the maximum percent inhibition.

[2] = tested on: Primary Rat cortical astrocytes; assay: Toxicity (percent of cell death), astrocytes; assay type: cell-based; details: at 20 μM
Protocol: EphA4 kinase inhibition is assessed by both an enzymatic assay measuring the phosphorylation of a purified recombinant EphA4 kinase and a cell-based assay using the activation of pGas-Luciferase system in EphA4-transfected CHO-K1 cells. The functional effects of EphA4 RTK inhibitors on cell motility and proliferation is evaluated by the scratch wound assay. The effect of EphA4 RTK inhibitors is also directly measured on the cell confluence. The counterscreen assays (cell counterscreen, Src, Jak2 and P38α kinase) identified other potential inhibitory activities of compounds unrelated to EphA4 kinase. The toxicity is measured by the percent of cell death in the different cell assays. Values represent IC50 and IP in μM calculated from the dose-response curves. Values in parentheses give the maximum percent inhibition.

Jak2 = target: T1, Jak2 (Homo sapiens, UniProt O60674); assay: Jak2 kinase counterscreen enzymatic assay (TR-FRET); assay type: biochemical; details: 5 μM ATP
T1 construct: purchased Cell Signaling, USA
Protocol: Counterscreen assays were developed for the tyrosine kinases src kinase and Jak2 kinase, with a format essentially identical to the EphA4 kinase TR-FRET format. Jak2 (50 ng) (Cell Signaling, USA) was incubated with 0.5 μM of biotinylated FLT3 peptide (Cell Signaling, USA) in presence of 5 μM of ATP (Sigma). P60c-src (10 U/well) (Upstate biotechnology, USA) was incubated with biotinylated Poly(Glu Tyr) peptide (100 nM) in presence of 0.5 μM of ATP. The enzymatic reaction was stopped after 60 min by adding 15 mM EDTA. The detection reaction and energy transfer signal measurements were similar to those previously described. Results were expressed as ratios of the absorbencies 665/615.
Compounds were titrated in duplicate at 11 points concentration starting at 100 μM with a 3 fold increment. Compounds were diluted in DMSO. […] Percentage inhibition for each compound was then calculated based on the value of the 100% inhibition. Concentration-response curves were represented and the concentrations for 50% inhibition (IC50) were calculated.

[3] = tested on: Primary Rat cortical astrocytes; assay: Proliferation assay (cell confluence), astrocytes; assay type: cell-based; details: at 5 μM
Protocol: as §1, §2, §3

T1 sequence (O60674 whole entry, species assumed): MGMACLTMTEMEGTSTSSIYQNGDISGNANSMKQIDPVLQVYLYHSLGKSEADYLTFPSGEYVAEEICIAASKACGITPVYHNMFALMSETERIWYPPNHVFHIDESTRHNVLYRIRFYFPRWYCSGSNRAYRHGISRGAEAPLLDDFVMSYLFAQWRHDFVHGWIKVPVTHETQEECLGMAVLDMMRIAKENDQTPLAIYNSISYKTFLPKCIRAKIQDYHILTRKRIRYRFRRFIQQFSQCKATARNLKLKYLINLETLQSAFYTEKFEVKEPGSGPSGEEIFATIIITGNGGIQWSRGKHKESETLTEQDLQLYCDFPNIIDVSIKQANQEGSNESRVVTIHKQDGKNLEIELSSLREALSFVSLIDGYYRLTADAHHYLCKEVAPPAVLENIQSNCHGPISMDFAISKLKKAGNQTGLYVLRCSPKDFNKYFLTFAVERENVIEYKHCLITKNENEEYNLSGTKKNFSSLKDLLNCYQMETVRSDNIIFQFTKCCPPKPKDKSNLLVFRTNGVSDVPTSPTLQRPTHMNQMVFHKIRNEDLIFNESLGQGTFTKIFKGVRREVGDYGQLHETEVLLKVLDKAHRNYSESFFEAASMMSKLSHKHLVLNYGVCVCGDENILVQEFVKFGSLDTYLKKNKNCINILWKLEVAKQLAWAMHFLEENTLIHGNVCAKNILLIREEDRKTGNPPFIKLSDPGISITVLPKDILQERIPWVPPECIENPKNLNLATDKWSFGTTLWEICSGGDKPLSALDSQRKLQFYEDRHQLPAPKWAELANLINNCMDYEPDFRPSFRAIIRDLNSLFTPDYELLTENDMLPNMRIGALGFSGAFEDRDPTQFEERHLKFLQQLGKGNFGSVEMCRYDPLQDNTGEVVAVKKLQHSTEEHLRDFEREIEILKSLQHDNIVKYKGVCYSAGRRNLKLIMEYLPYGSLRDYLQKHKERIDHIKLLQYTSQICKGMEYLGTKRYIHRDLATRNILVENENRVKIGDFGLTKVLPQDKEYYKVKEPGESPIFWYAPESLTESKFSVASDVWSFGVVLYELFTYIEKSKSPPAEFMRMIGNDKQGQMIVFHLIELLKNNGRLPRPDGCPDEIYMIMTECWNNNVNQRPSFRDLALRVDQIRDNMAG

SMILES | % Reduction of Confluence C2C12 Cells (C2C12 cells) | IC50 [1] | Scratch Assay C2C12 Cells max inhibition in % [1] | Max Toxicity Astrocytes % of cell death [2] | IC50 (Jak2) | % Reduction of Confluence Astrocytes [3]
CC1CCc2c(-c3ccccc3Cl)nc3[nH]nc(N)c3c2C1 (stereo not drawn) [Example 63] | 9.2% at 5 μM | 3100 nM | 46% | 5% at 20 μM | > 100000 nM | 14.8% at 5 μM
Cc1ccccc1-c1nc2[nH]nc(N)c2c2c1CCC(C)(C)C2 [Example 67] | 49.2% at 5 μM | 500 nM | 78% | 12.5% at 20 μM | 1000 nM | 29.1% at 5 μM
